Source: publication PMC12154426, “TPP-Based Nanovesicles Kill MDR Neuroblastoma Cells and Induce Moderate ROS Increase, While Exerting Low Toxicity Towards Primary Cell Cultures: An In Vitro Study” (International Journal of Molecular Sciences, 2025)

Test system: cortical neurons
Assay: MTT cytotoxicity assay on cortical neuron primary cell cultures
Assay type: cell-based, Sprague Dawley rat
Details: for IC50: 0.12–11.73 µM
Source text: Similarly to the assessment of haemolytic toxicity, the evaluation of cytotoxicity towards mammalian cells is another pivotal step to afford in the early stage of drug development, before undertaking other costly and time-consuming in vivo experiments. […] The cytotoxicity of quaternary phosphonium salts (QPSs) depends mainly on their physicochemical characteristics, including the number of carbon atoms of alkyl chains, the presence of aromatic ring(s) on which the P^+ cationic charge can delocalize, the type of counter anions, the possible colloidal properties, and the probable capability to form nano aggregates. The specific types of cells exposed to QPSs can further influence their cytotoxicity. In this regard, the constituents of membranes of cancer cells are different from those of mammalian cells. This makes them more susceptible to the disruptive action of cationic compounds, thus making QPSs’ possible cytotoxicity towards tumour cells higher than towards normal ones. Anyway, a certain cytotoxicity could manifest also in normal cells and quantifying it is mandatory. Based on these considerations, although NB is a neuroendocrine tumour which derives from neural crest cells, we investigated the BPPB toxic effects on primary cell cultures, namely spinal cord astrocytes and cortical neurons. Astrocyte primary cultures have emerged as an important tool for understanding the responses of normal cells under both physiological and pathological conditions. On the other hand, primary neuronal cell cultures are best suited for drug discovery and drug development. Primary cell cultures freshly prepared from animals reproduce physiological conditions astonishingly like the in vivo situation. As for our knowledge, it is the first time that the cytotoxicity of a bola amphiphilic compound is assessed on primary cultures of astrocytes and neurons. More generically, the existent studies on the cytotoxicity of synthetic QPSs, or of a generic exogenous synthetic cationic organic compound or polymer on astrocytes and neurons primary cell cultures, are limited. As examples, upon a rapid survey, we have found a study on the mechanism by which amine-modified cationic polystyrene nanoparticles induced cell death in a human brain astrocytoma cell line, but not in primary astrocytes. A study on the mechanism by which endogenous eosinophil cationic protein/RNase 3 induced cell death in primary astrocytes was found, but exogenous synthetic cationic compounds were not considered. Concerning primary neurons, the cytotoxicity of both a commercial (LA2000) and a newly prepared cationic lipid (Arg (TFA^−)) vs. primary neurons was assessed by Aoshima et al.. The cytotoxicity of a library of 80 compounds, among which only 2/3 molecules were cationic salts, was evaluated in human-induced pluripotent stem cell (iPSC)-derived neural stem cells, neurons, and astrocytes by Pei et al.. Vidal et al. assessed the neurotoxicity of a cationic fourth generation (G4) amine dendrimer (G4-NH2) towards primary neuron cell cultures. […] Cell viability in neurons and astrocytes, treated with increasing concentrations of BPPB for 24, 48, and 72 h, was assessed using the MTT essay, which is a method endowed with simplicity, convenience, quantitative and high throughput, as well as reproducibility. MTT is a well-established method for assessing cell viability, and its reliability is supported by standardized protocols in many areas of research.
Cortical neurons were prepared from the cortex of E16-E17 Sprague Dawley rat embryos, as previously described. The cortex was removed under binocular dissection (Nikon SMZ-2T, Tokyo, Japan) in a physiologic medium composed of 120 mM NaCl, 5 mM KCl, 25 mM HEPES, and 9 mM glucose (HIB, pH 7.4) at 4 °C. […]

## c1ccc([P+](CCCCCCCCCCCC[P+](c2ccccc2)(c2ccccc2)c2ccccc2)(c2ccccc2)c2ccccc2)cc1 [BPPB, 1,1-(1,12-dodecanediyl)-bis-[1,1,1]-triphenyl phosphonium di-bromide]
0.12 µM, 24 h
  cell viability: 89.49%
0.12 µM, 48 h
  cell viability: 96.77%
0.12 µM, 72 h
  cell viability: 95.90%
0.29 µM, 72 h
  cell viability: 71.80%
1.80 µM, 48 h
  cell viability: 57.15%
11.73 µM (10.0 µg/mL), 24 h
  cell viability: 14.80%
11.73 µM (10.0 µg/mL), 48 h
  cell viability: 20.03%
11.73 µM (10.0 µg/mL), 72 h
  cell viability: 10.63%
24 h exposure
  IC50: 1.56 ± 0.278 µM
48 h exposure
  IC50: 2.21 ± 0.337 µM
72 h exposure
  IC50: 0.763 ± 0.127 µM
Cortical neurons vs. HTLA 230, 24 h
  SI 24 h: 1.69
Cortical neurons vs. HTLA 230, 48 h
  SI 48 h: 4.78
Cortical neurons vs. HTLA 230, 72 h
  SI 72 h: 1.96
Cortical neurons vs. HTLA ER, 24 h
  SI 24 h: 1.26
Cortical neurons vs. HTLA ER, 48 h
  SI 48 h: 1.63
Cortical neurons vs. HTLA ER, 72 h
  SI 72 h: 0.64
HTLA 230 and HTLA ER, all exposure timings except HTLA ER 72 h
  SI values with respect to primary cortical neurons: 1.26–4.78
